Where no end group is shown, it is not given here. [ ]: non-standard residue; d: D form. pY = N[C@@H](Cc1ccc(OP(=O)(O)O)cc1)C(=O)O
Columns and labels:
[1] = tested on: IL-6/gp130 signaling; EGFR signaling; assay: IL-6 versus EGF stimulated signaling in HepG2 cells (STAT3 and MAPK p42/44 Western blot); format: cell-based, human; details: 1.0 μM, 30 min prior to IL-6 or EGF stimulation
Description: Human hepatoma cells HepG2 were treated as indicated with 1.0 μM gp130-peptide peptide (i.e., 65 is phosphorothioate elongated SEQ ID NO:4, 96 is phosphorothioate elongated SEQ ID NO:8, and 63 is phosphorothioate elongated SEQ ID NO:9) for either 30 min prior to IL-6 or EGF stimulation. Whole cell lysates were subjected to electrophoretic protein separation and STAT3 as well as MAPK (p42/44) activity was assessed by Western blot. Total STAT3 and MAPK (p42/44) protein staining was included as a loading control.

[2] = tested on: IL-6/gp130/STAT3 target genes; assay: RT-PCR of IL-6/gp130/STAT3 acute-phase target genes in IL-6 stimulated HepG2 cells; format: cell-based, human; details: 1.0 μM, 24 h upon IL-6 stimulation
Description: (§1) Human hepatoma cells HepG2 were treated as indicated with 1.0 μM gp130-peptide (i.e., IL6-65 represents phosphorothioate elongated SEQ ID NO:4, IL6-96 represents phosphorothioate elongated SEQ ID NO:8, and IL-63 represents phosphorothioate elongated SEQ ID NO:9) for 24 h upon IL-6 stimulation. mRNA was isolated and target gene expression was assessed by RT-PCR. SD shown; T-test: *) P<0.05, **) P<0.01, ***) P<0.001.
Interleukin-6 (IL-6) signaling feeds intracellular STAT3 activity by binding to the extracellular domain of IL-6Ralpha (gp80) recruiting the signaling co-receptors IL-6Rbeta (gp130). IL-6 engagement to these receptors leads to the phosphorylation of 6 tyrosine residues in the cytoplasmic tail of gp130; 3 of those phospho-tyrosines (pY767, pY905 and pY915) serve as the major docking sites recognized by STAT3s SH2 domain initiating STAT3 intracellular signaling. Applicants disclose these three gp130-peptides modified by phosphorothioated ssDNA extension (FIG. 13) considerably reduce expression of a repertoire of IL-6/gp130/STAT3 target genes orchestrating the acute-phase inflammatory response (FIG. 15) once they undergo cellular internalization (FIG. 14).

[3] = tested on: survivin (BIRC5) and BclXL (BCL2L1); assay: RT-PCR of cancer cell survival genes in HepG2 cells; format: cell-based, human; details: 1.0 μM, 24 h upon IL-6 stimulation
Description: as §1, with “T-test:” for “T-test: *) P<0.05, **) P<0.01,”

pY-STAT3 = pY-STAT3 Western blot in IL-6 stimulated HepG2 cells; format: cell-based, human; details: 1.0 μM, 30 min prior to IL-6 stimulation
Description: FIG. 16: gp130-peptide treatment of cancer cells inhibits pY-STAT3 activation. Human hepatoma cells HepG2 were treated as indicated with 1.0 μM gp130-peptide peptide (i.e., 2263165 is phosphorothioate elongated SEQ ID NO:4, 1209196 is phosphorothioate elongated SEQ ID NO:8, and 2263163 is phosphorothioate elongated SEQ ID NO:9) for either 30 min prior to IL-6 stimulation. Whole cell lysates were subjected to electrophoretic protein separation and STAT3 activity was assessed by Western blot detecting phospho-tyrosine. Total STAT3 protein staining was included as a loading control.
Human hepatoma cells HepG2 were treated as indicated with 1.0 uM gp130-peptide for either 30 min prior to IL-6 stimulation. Whole cell lysates were subjected to electrophoretic protein separation and STAT3 activity was assessed by Western blot detecting phospho-tyrosine. Total STAT3 protein staining was included as a loading control.

[4] = tested on: W76964 (mouse pancreatic cancer cell line) cells; assay: Cell penetration in W76964 cells (flow cytometry); format: cell-based; details: 1×10^6 cells, 10 μg, 2 hours at 37° C.
Description: FIGS. 29A-29B: Combination treatment of cell-penetrating Gp130-inhibitory peptide (i.e., Gp130 peptide) and c-MYC-inhibitory peptide (i.e., c-MYC binding peptide) (SEQ ID NO:10) suppresses tumor growth in a syngeneic mouse model of pancreatic cancer. FIG. 29A. […] 1×10^6 cells were incubated with 10 μg of PS-GP130- or PS-c-MYC-peptide for 2 hours at 37° C. […] FIG. 29B. W76964 cells were engrafted in C57BL/6 mice to generate tumors. After tumor size reached approximately 80 mm^3, PO-Gp130 or PS-GP130 was mixed with PS-c-MYC-inhibitory peptide (1:1 ratio) to treat mice systemically (i.v.) at 20 μg every other day. Tumor size was measured by a caliber. Tumor volume was calculated (V=(L×W×W)), where V is tumor volume, W is tumor width, L is tumor length. When some tumors start to reach 600 mm^3, all groups of mice were euthanized at the same time using protocols approved by IACUC of City of Hope. N=6 as indicated.
1×10^6 cells were incubated with 10 μg of PS-GP130- or PS-c-MYC-peptide for 2 hours at 37° C. […] W76964 cells were engrafted in C57BL/6 mice to generate tumors (FIG. 29B). […] Tumor size was measured by a caliber. Tumor volume was calculated (V=(L×W×W)), where V is tumor volume, W is tumor width, L is tumor length. […]

Row | Substance | specificity: IL-6/gp130 signaling versus EGF/EGFR signaling [1] | expression of IL-6/gp130/STAT3 target genes of the acute-phase inflammatory response [2] | expression of survival genes survivin (BIRC5) and BclXL (BCL2L1) [3] | pY-STAT3 levels / STAT3 activity (pY-STAT3) | cell penetration, flow cytometry [4]
1 | PS-1209196: phosphorothioate elongated SEQ ID NO:8, gp130 peptide phosphorylated at tyrosine 905, MPKSpYLPQTV (MPKS[pY]LPQTV; also: phosphorothioate elongation) | specifically inhibits IL-6/gp130 signaling but not EGFR signaling | significantly reduces | significantly reduces | inhibitory efficacy | 
2 | PS-2263163: phosphorothioate elongated SEQ ID NO:9, gp130 peptide phosphorylated at tyrosine 915, RQGGpYMPQ (RQGG[pY]MPQ; also: phosphorothioate elongation) | specifically inhibits IL-6/gp130 signaling but not EGFR signaling | significantly reduces | significantly reduces | inhibitory efficacy | 
3 | PS-c-MYC-inhibitory peptide: phosphorothioate-conjugated c-MYC binding peptide SEQ ID NO:10 KNDTHQQDIDDLK (also: phosphorothioate-conjugated) |  |  |  |  | cell penetration
4 | PS-2263165: phosphorothioate elongated SEQ ID NO:4, gp130 peptide phosphorylated at tyrosine 767, VHSGpYRHQVPS (VHSG[pY]RHQVPS; also: phosphorothioate elongation) | specifically inhibits IL-6/gp130 signaling but not EGFR signaling | significantly reduces | significantly reduces | inhibitory efficacy | 

— patent US11541121B2, “Phosphorothioate-conjugated peptides and methods of using the same” (CITY OF HOPE, priority 2017, dated 2023)
